From the supplement of paper PMC11061612

How the values were obtained:
Paclitaxel = compound: CC(=O)O[C@H]1C(=O)[C@@]2(C)[C@H]([C@H](OC(=O)c3ccccc3)[C@]3(O)C[C@H](OC(=O)[C@H](O)[C@@H](NC(=O)c4ccccc4)c4ccccc4)C(C)=C1C3(C)C)[C@]1(OC(C)=O)CO[C@@H]1C[C@@H]2O [Paclitaxel]; conditions: max 3 µM
Summary of the method: (§1)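 Cancer cell lines were plated in 1536-well plates in 7.5 μl of DMEM/F12 or RPMI with 10% FBS and kept 24 hours at 37°C and 5% CO2 before 72 hours of dosing, with final DMSO typically 0.2%. CellTiter-Glo 2.0 luminescence measured viability, scaled between blank-well and DMSO-well means. Dose responses were fitted to a two-parameter logistic curve with a non-linear mixed effects model. This fit gives the single-agent IC50.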

Savolitinib = compound: C[C@@H](c1ccc2nccn2c1)n1nnc2ncc(-c3cnn(C)c3)nc21 [Savolitinib]; conditions: max 1 µM
Summary of the method: as §1

Etoposide = compound: COc1cc([C@@H]2c3cc4c(cc3[C@@H](O[C@@H]3O[C@@H]5CO[C@@H](C)O[C@H]5[C@H](O)[C@H]3O)[C@H]3COC(=O)[C@H]23)OCO4)cc(OC)c1O [Etoposide]; conditions: max 10 µM
Summary of the method: as §1

AZD7648 = compound: Cc1cc2ncnn2cc1Nc1ncc2c(n1)n(C1CCOCC1)c(=O)n2C [AZD7648]; conditions: max 10 µM
Summary of the method: as §1

AZD1390 = compound: CC(C)n1c(=O)n(C)c2cnc3cc(F)c(-c4ccc(OCCCN5CCCCC5)nc4)cc3c21 [AZD1390]; conditions: max 0.3 µM
Summary of the method: as §1

SRA737 = compound: N#Cc1cnc(Nc2cc(NC[C@H]3CNCCO3)c(C(F)(F)F)cn2)cn1 [SRA737]; conditions: max 10 µM
Summary of the method: as §1

AZD5153 = compound: COc1nnc2ccc(N3CCC(c4ccc(OCCN5CCN(C)C(=O)[C@H]5C)cc4)CC3)nn12 [AZD5153]; conditions: max 1 µM
Summary of the method: as §1

AZD4320 = compound: CN(CC[C@H](CSC1=CC=CC=C1)NC2=C(C=C(C=C2)S(=O)(=O)NC(=O)C3=CC=C(C=C3)N4CCC(CC4)[C@H](C5=CC=CC=C5C6=CC=C(C=C6)Cl)O)S(=O)(=O)C(F)(F)F)CCO [AZD4320]; conditions: max 1 µM
Summary of the method: as §1

Venetoclax = compound: CC1(C)CCC(CN2CCN(c3ccc(C(=O)NS(=O)(=O)c4ccc(NCC5CCOCC5)c([N+](=O)[O-])c4)c(Oc4cnc5[nH]ccc5c4)c3)CC2)=C(c2ccc(Cl)cc2)C1 [Venetoclax]; conditions: max 1 µM
Summary of the method: as §1

Alisertib = compound: COc1cc(Nc2ncc3c(n2)-c2ccc(Cl)cc2C(c2c(F)cccc2OC)=NC3)ccc1C(=O)O [Alisertib]; conditions: max 10 µM
Summary of the method: as §1

Trametinib = compound: CC(=O)Nc1cccc(-n2c(=O)n(C3CC3)c(=O)c3c(Nc4ccc(I)cc4F)n(C)c(=O)c(C)c32)c1 [Trametinib]; conditions: max 1 µM
Summary of the method: as §1

Olaparib = compound: O=C(c1cc(Cc2n[nH]c(=O)c3ccccc23)ccc1F)N1CCN(C(=O)C2CC2)CC1 [Olaparib]; conditions: max 10 µM
Summary of the method: as §1

SN-38 = compound: CCc1c2c(nc3ccc(O)cc13)-c1cc3c(c(=O)n1C2)COC(=O)[C@]3(O)CC [SN-38]; conditions: max 0.3 µM
Summary of the method: as §1

[1] = compound: O=C(Nc1ccc2[nH]nc(-c3ccncc3)c2c1)[C@@H]1CCN(CC(=O)N2CCN(c3ccc(-c4ncccn4)cc3)CC2)C1; conditions: max 5 µM
Summary of the method: as §1

Prexasertib = compound: COc1cccc(OCCCN)c1-c1cc(Nc2cnc(C#N)cn2)n[nH]1 [Prexasertib]; conditions: max 1 µM
Summary of the method: as §1

AZD8186 = compound: C[C@@H](Nc1cc(F)cc(F)c1)c1cc(C(=O)N(C)C)cc2c(=O)cc(N3CCOCC3)oc12 [AZD8186]; conditions: max 10 µM
Summary of the method: as §1

Palbociclib = compound: CC(=O)c1c(C)c2cnc(Nc3ccc(N4CCNCC4)cn3)nc2n(C2CCCC2)c1=O [Palbociclib]; conditions: max 10 µM
Summary of the method: as §1

AZD5363 = compound: C1CN(CCC1(C(=O)N[C@@H](CCO)C2=CC=C(C=C2)Cl)N)C3=NC=NC4=C3C=CN4 [AZD5363]; conditions: max 10 µM
Summary of the method: as §1

AZD0156 = compound: CN(C)CCCOc1ccc(-c2ccc3ncc4c(c3c2)n(C2CCOCC2)c(=O)n4C)cn1 [AZD0156]; conditions: max 3 µM
Summary of the method: as §1

SG3199 = compound: CC1=CN2[C@@H](C1)C=NC3=CC(=C(C=C3C2=O)OC)OCCCCCOC4=C(C=C5C(=C4)N=C[C@@H]6CC(=CN6C5=O)C)OC [SG3199]; conditions: max 0.001 µM
Summary of the method: as §1

AZD2811 = compound: CCN(CCO)CCCOc1ccc2c(Nc3cc(CC(=O)Nc4cccc(F)c4)[nH]n3)ncnc2c1 [AZD2811]; conditions: max 1 µM
Summary of the method: as §1

Lapatinib = compound: CS(=O)(=O)CCNCc1ccc(-c2ccc3ncnc(Nc4ccc(OCc5cccc(F)c5)c(Cl)c4)c3c2)o1 [Lapatinib]; conditions: max 10 µM
Summary of the method: as §1

Gemcitabine = compound: Nc1ccn([C@@H]2O[C@H](CO)[C@@H](O)C2(F)F)c(=O)n1 [Gemcitabine]; conditions: max 0.3 µM
Summary of the method: as §1

Selumetinib = compound: Cn1cnc2c(F)c(Nc3ccc(Br)cc3Cl)c(C(=O)NOCCO)cc21 [Selumetinib]; conditions: max 10 µM
Summary of the method: as §1

AZD6738 = compound: C[C@@H]1COCCN1C2=NC(=NC(=C2)C3(CC3)[S@](=N)(=O)C)C4=C5C=CNC5=NC=C4 [AZD6738]; conditions: max 10 µM
Summary of the method: as §1

Crizotinib = compound: C[C@@H](Oc1cc(-c2cnn(C3CCNCC3)c2)cnc1N)c1c(Cl)ccc(F)c1Cl [Crizotinib]; conditions: max 10 µM
Summary of the method: as §1

Dasatinib = compound: CC1=C(C(=CC=C1)Cl)NC(=O)C2=CN=C(S2)NC3=CC(=NC(=N3)C)N4CCN(CC4)CCO [Dasatinib]; conditions: max 2 µM
Summary of the method: as §1

AZD5991 = compound: Cc1c2c(nn1C)CSCc1cc(n(C)n1)CSc1cc(c3ccccc3c1)OCCCc1c(C(=O)O)n(C)c3c-2c(Cl)ccc13 [AZD5991]; conditions: max 1 µM
Summary of the method: as §1

Doxorubicin = compound: COc1cccc2c1C(=O)c1c(O)c3c(c(O)c1C2=O)C[C@@](O)(C(=O)CO)C[C@@H]3O[C@H]1C[C@H](N)[C@H](O)[C@H](C)O1 [Doxorubicin]; conditions: max 1 µM
Summary of the method: as §1

Carboplatin = compound: C1CC(C1)(C(=O)[O-])C(=O)[O-].N.N.[Pt+2] [Carboplatin]; conditions: max 10 µM
Summary of the method: as §1

Taselisib = compound: Cc1nc(-c2cn3c(n2)-c2ccc(-c4cnn(C(C)(C)C(N)=O)c4)cc2OCC3)n(C(C)C)n1 [Taselisib]; conditions: max 10 µM
Summary of the method: as §1

MK-2206 = compound: NC1(c2ccc(-c3nc4ccn5c(=O)[nH]nc5c4cc3-c3ccccc3)cc2)CCC1 [MK-2206]; conditions: max 10 µM
Summary of the method: as §1

Gefitinib = compound: COc1cc2ncnc(Nc3ccc(F)c(Cl)c3)c2cc1OCCCN1CCOCC1 [Gefitinib]; conditions: max 10 µM
Summary of the method: as §1

5-Fluorouracil = compound: O=c1[nH]cc(F)c(=O)[nH]1 [5-Fluorouracil]; conditions: max 20 µM
Summary of the method: as §1

AZD1775 = compound: C=CCn1c(=O)c2cnc(Nc3ccc(N4CCN(C)CC4)cc3)nc2n1-c1cccc(C(C)(C)O)n1 [AZD1775]; conditions: max 3 µM
Summary of the method: as §1

Row | Cell Line | IC50, cell viability 72 h (Paclitaxel) | IC50, cell viability 72 h (Savolitinib) | IC50, cell viability 72 h (Etoposide) | IC50, cell viability 72 h (AZD7648) | IC50, cell viability 72 h (AZD1390) | IC50, cell viability 72 h (SRA737) | IC50, cell viability 72 h (AZD5153) | IC50, cell viability 72 h (AZD4320) | IC50, cell viability 72 h (Venetoclax) | IC50, cell viability 72 h (Alisertib) | IC50, cell viability 72 h (Trametinib) | IC50, cell viability 72 h (Olaparib) | IC50, cell viability 72 h (SN-38) | IC50, cell viability 72 h [1] | IC50, cell viability 72 h (Prexasertib) | IC50, cell viability 72 h (AZD8186) | IC50, cell viability 72 h (Palbociclib) | IC50, cell viability 72 h (AZD5363) | IC50, cell viability 72 h (AZD0156) | IC50, cell viability 72 h (SG3199) | IC50, cell viability 72 h (AZD2811) | IC50, cell viability 72 h (Lapatinib) | IC50, cell viability 72 h (Gemcitabine) | IC50, cell viability 72 h (Selumetinib) | IC50, cell viability 72 h (AZD6738) | IC50, cell viability 72 h (Crizotinib) | IC50, cell viability 72 h (Dasatinib) | IC50, cell viability 72 h (AZD5991) | IC50, cell viability 72 h (Doxorubicin) | IC50, cell viability 72 h (Carboplatin) | IC50, cell viability 72 h (Taselisib) | IC50, cell viability 72 h (MK-2206) | IC50, cell viability 72 h (Gefitinib) | IC50, cell viability 72 h (5-Fluorouracil) | IC50, cell viability 72 h (AZD1775)
1 | OCUM-1 (Gastric Carcinoma) | 2620 nM | > 1000 nM | > 10 µM | > 10 µM | > 300 nM | > 10 µM | 645 nM | 571 nM | > 1000 nM | > 10 µM | 1.85 nM | > 10 µM | 48.6 nM | 35.9 nM | 78.1 nM | > 10 µM | > 10 µM | 8.9 µM | > 3000 nM | > 1 nM | > 1000 nM | > 10 µM | 110 nM | 63 nM | 2950 nM | > 10 µM | > 2000 nM | > 1000 nM | > 1000 nM | > 10 µM | > 10000 nM | > 10 µM | > 10 µM | > 20 µM | 1510 nM
2 | SCC-9 (Oral Cavity Carcinoma) | 284 nM | > 1000 nM | > 10 µM | > 10 µM | > 300 nM | > 10 µM | > 1000 nM | > 1000 nM | > 1000 nM | > 10 µM | > 1000 nM | > 10 µM | > 300 nM | > 5000 nM | > 1000 nM | > 10 µM | > 10 µM | > 10 µM | > 3000 nM | > 1 nM | > 1000 nM | 5.06 µM | > 300 nM | > 10000 nM | > 10000 nM | > 10 µM | 1150 nM | > 1000 nM | > 1000 nM | > 10 µM | 2140 nM | > 10 µM | > 10 µM | > 20 µM | 2830 nM
